Measurements published in ChEMBL document CHEMBL4308841, “Synthesis, in vitro antiproliferative activity, and kinase inhibitory effects of pyrazole-containing diarylureas and diarylamides” (Eur J Med Chem, 2018).

Assays:
MDA-MB-435 = test: Growth inhibition of human MDA-MB-435 cells assessed as cell growth at 1 uM incubated for 48 hrs by sulforhodamine B assay relative to control; assay type: functional; conditions: MDA-MB-435, 48 h, read-out: Activity
SF-295 = test: Growth inhibition of human SF295 cells assessed as cell growth at 0.01 uM incubated for 48 hrs by sulforhodamine B assay relative to control; assay type: functional; conditions: SF-295, 48 h, read-out: Activity
NCI-H522 [1] = test: Growth inhibition of human NCI-H522 cells incubated for 48 hrs by sulforhodamine B assay; assay type: functional, cell-based; conditions: NCI-H522, 48 h
ACHN [2] = test: Growth inhibition of human ACHN cells assessed as cell growth at 100 uM incubated for 48 hrs by sulforhodamine B assay relative to control; assay type: functional; conditions: read-out: Activity
SNB-75 [3] = test: Growth inhibition of human SNB75 cells assessed as cell growth at 100 uM incubated for 48 hrs by sulforhodamine B assay relative to control; assay type: functional; conditions: SNB-75, 48 h, read-out: Activity
NCI/ADR-RES = test: Growth inhibition of human NCI/ADR-RES cells assessed as cell growth at 0.01 uM incubated for 48 hrs by sulforhodamine B assay relative to control; assay type: functional; conditions: read-out: Activity
SNB-19 = test: Growth inhibition of human SNB19 cells assessed as cell growth at 1 uM incubated for 48 hrs by sulforhodamine B assay relative to control; assay type: functional; conditions: SNB-19, 48 h, read-out: Activity
SN12C = test: Growth inhibition of human SN12C cells assessed as cell growth at 0.01 uM incubated for 48 hrs by sulforhodamine B assay relative to control; assay type: functional; conditions: read-out: Activity
NCI-H522 [4] = test: Growth inhibition of human NCI-H522 cells assessed as cell growth at 10 uM incubated for 48 hrs by sulforhodamine B assay relative to control; assay type: functional; conditions: NCI-H522, 48 h, read-out: Activity
OVCAR-5 = test: Growth inhibition of human OVCAR5 cells assessed as cell growth at 0.1 uM incubated for 48 hrs by sulforhodamine B assay relative to control; assay type: functional; conditions: OVCAR-5, 48 h, read-out: Activity
RPMI-8226 [5] = test: Growth inhibition of human RPMI8226 cells assessed as cell growth at 100 uM incubated for 48 hrs by sulforhodamine B assay relative to control; assay type: functional; conditions: RPMI-8226, 48 h, read-out: Activity
SK-MEL-5 = test: Growth inhibition of human SK-MEL-5 cells incubated for 48 hrs by sulforhodamine B assay; assay type: functional, cell-based; conditions: SK-MEL-5, 48 h
ACHN [6] = test: Growth inhibition of human ACHN cells incubated for 48 hrs by sulforhodamine B assay; assay type: functional, cell-based
UACC-257 = test: Growth inhibition of human UACC257 cells assessed as cell growth at 0.1 uM incubated for 48 hrs by sulforhodamine B assay relative to control; assay type: functional; conditions: UACC-257, 48 h, read-out: Activity
RPMI-8226 [7] = test: Growth inhibition of human RPMI8226 cells incubated for 48 hrs by sulforhodamine B assay; assay type: functional, cell-based; conditions: RPMI-8226, 48 h
LOX IMVI = test: Growth inhibition of human LOXIMVI cells incubated for 48 hrs by sulforhodamine B assay; assay type: functional
IGROV-1 = test: Growth inhibition of human IGROV1 cells assessed as cell growth at 0.1 uM incubated for 48 hrs by sulforhodamine B assay relative to control; assay type: functional; conditions: IGROV-1, 48 h, read-out: Activity
SNB-75 [8] = test: Growth inhibition of human SNB75 cells assessed as cell growth at 0.01 uM incubated for 48 hrs by sulforhodamine B assay relative to control; assay type: functional; conditions: SNB-75, 48 h, read-out: Activity
OVCAR-3 = test: Growth inhibition of human OVCAR3 cells assessed as cell growth at 0.1 uM incubated for 48 hrs by sulforhodamine B assay relative to control; assay type: functional; conditions: OVCAR-3, 48 h, read-out: Activity
SK-OV-3 = test: Growth inhibition of human SKOV3 cells assessed as cell growth at 0.01 uM incubated for 48 hrs by sulforhodamine B assay relative to control; assay type: functional; conditions: SK-OV-3, 48 h, read-out: Activity
NCI-H23 = test: Growth inhibition of human NCI-H23 cells assessed as cell growth at 0.01 uM incubated for 48 hrs by sulforhodamine B assay relative to control; assay type: functional; conditions: NCI-H23, 48 h, read-out: Activity
SR = test: Growth inhibition of human SR cells incubated for 48 hrs by sulforhodamine B assay; assay type: functional, cell-based
K562 = test: Growth inhibition of human K562 cells assessed as cell growth at 0.01 uM incubated for 48 hrs by sulforhodamine B assay relative to control; assay type: functional; conditions: K562, 48 h, read-out: Activity
U-251 = test: Growth inhibition of human U251 cells incubated for 48 hrs by sulforhodamine B assay; assay type: functional, cell-based; conditions: U-251, 48 h
SW-620 = test: Growth inhibition of human SW620 cells assessed as cell growth at 0.1 uM incubated for 48 hrs by sulforhodamine B assay relative to control; assay type: functional; conditions: SW-620, 48 h, read-out: Activity
SK-MEL-2 = test: Growth inhibition of human SK-MEL-2 cells assessed as cell growth at 0.1 uM incubated for 48 hrs by sulforhodamine B assay relative to control; assay type: functional; conditions: SK-MEL-2, 48 h, read-out: Activity
DU-145 = test: Growth inhibition of human DU145 cells assessed as cell growth at 1 uM incubated for 48 hrs by sulforhodamine B assay relative to control; assay type: functional; conditions: DU-145, 48 h, read-out: Activity
A549 = test: Growth inhibition of human A549/ATCC cells assessed as cell growth at 0.01 uM incubated for 48 hrs by sulforhodamine B assay relative to control; assay type: functional; conditions: A549, 48 h, read-out: Activity
[9] = read-out: LC50 (the source's name)
[10] = read-out: pLC50 (the source's name) (converted)

Molecule `COc1cc(Cl)cc(-c2nn(-c3cccc(NC(=O)Nc4ccc(Cl)c(C(F)(F)F)c4)c3)cc2-c2ccncc2)c1` has a growth at 1 µM (MDA-MB-435) of 81%, a growth at 0.01 µM (SF-295) of 59% and a GI50 (NCI-H522 [1]; read-out: GI50) of 0.418 µM. It also gave a CC50 (NCI-H522 [1]; [9]) of 9.74 µM, a TGI (NCI-H522 [1]; read-out: TGI) of 25 µM and a GI50 (NCI-H522 [1]; read-out: pGI50 (converted)) of 0.417 µM. It also gave a CC50 (NCI-H522 [1]; [10]) of 9.77 µM, a TGI (NCI-H522 [1]; read-out: pTGI (converted)) of 2.51 µM and a growth at 100 µM (ACHN [2]) of -31%. For the same molecule, the growth at 100 µM (SNB-75 [3]) was -38%, the growth at 0.01 µM (NCI/ADR-RES) was 98% and the growth at 1 µM (SNB-19) was 87%. The growth at 0.01 µM (SN12C) was 98%, the growth at 10 µM (NCI-H522 [4]) was -10.4% and the growth at 0.1 µM (OVCAR-5) was 73%. The growth at 100 µM (RPMI-8226 [5]) was -32%, the GI50 (SK-MEL-5; read-out: GI50) was 1.54 µM and the CC50 (SK-MEL-5; [9]) was 5.58 µM. The TGI (SK-MEL-5; read-out: TGI) was 29.3 µM, the GI50 (SK-MEL-5; read-out: pGI50 (converted)) was 1.55 µM and the CC50 (SK-MEL-5; [10]) was 5.62 µM. For the same molecule, the TGI (SK-MEL-5; read-out: pTGI (converted)) was 8.32 µM, the GI50 (ACHN [6]; read-out: GI50) was 0.752 µM and the CC50 (ACHN [6]; [9]) was over 100 µM. For the same molecule, the TGI (ACHN [6]; read-out: TGI) was 10.2 µM, the GI50 (ACHN [6]; read-out: pGI50 (converted)) was 0.759 µM and the CC50 (ACHN [6]; [10]) was over 100 µM. For the same molecule, the TGI (ACHN [6]; read-out: pTGI (converted)) was 14.5 µM, the growth at 0.1 µM (UACC-257) was 59% and the IC50 (RPMI-8226 [7]) was 0.4 µM. The GI50 (RPMI-8226 [7]; read-out: GI50) was 0.402 µM, the CC50 (RPMI-8226 [7]; [9]) was over 100 µM and the TGI (RPMI-8226 [7]; read-out: TGI) was 20.7 µM. It also gave a GI50 (RPMI-8226 [7]; read-out: pGI50 (converted)) of 0.398 µM, a CC50 (RPMI-8226 [7]; [10]) of over 100 µM and a TGI (RPMI-8226 [7]; read-out: pTGI (converted)) of 2.09 µM. For the same molecule, the GI50 (LOX IMVI; read-out: GI50) was 1.23 µM, the TGI (LOX IMVI; read-out: TGI) was 31.4 µM and the GI50 (LOX IMVI; read-out: pGI50 (converted)) was 1.23 µM. The growth at 0.1 µM (IGROV-1) was 99%, the growth at 0.01 µM (SNB-75 [8]) was 57% and the growth at 0.1 µM (OVCAR-3) was 99%. The growth at 0.01 µM (SK-OV-3) was 104%, the growth at 0.01 µM (NCI-H23) was 90% and the GI50 (SR; read-out: GI50) was 1.06 µM. It also gave a CC50 (SR; [9]) of over 100 µM, a TGI (SR; read-out: TGI) of 43.8 µM and a GI50 (SR; read-out: pGI50 (converted)) of 1.07 µM. It also gave a CC50 (SR; [10]) of over 100 µM, a TGI (SR; read-out: pTGI (converted)) of 4.37 µM and a growth at 0.01 µM (K562) of 94%. The IC50 (U-251) was 0.73 µM, the GI50 (U-251; read-out: GI50) was 0.729 µM and the CC50 (U-251; [9]) was 5 µM. It also gave a TGI (U-251; read-out: TGI) of 21.1 µM, a GI50 (U-251; read-out: pGI50 (converted)) of 0.724 µM and a CC50 (U-251; [10]) of 5.01 µM. It also gave a TGI (U-251; read-out: pTGI (converted)) of 2.09 µM, a growth at 0.1 µM (SW-620) of 96% and a growth at 0.1 µM (SK-MEL-2) of 52%. The growth at 1 µM (DU-145) was 64% and the growth at 0.01 µM (A549) was 97%.
